Source: paper PMC12808100, “The non-catalytic DNA polymerase ε subunit is an NPF motif recognition protein” (Nature Communications, 2025)

Molecular target: His6-avi-MBP-tagged POLE2
Experiment: Single-point nHU-MS with recombinant His6-avi-MBP-POLE2 bait, Jurkat extract
Assay type: binding, human
Conditions: significant apparent affinity of endogenous prey protein for POLE2 bait; single-point nHU-MS; Figure S11
From the text: So far, our study only focused on a few hand-picked NPF motifs and studied them as short synthetic peptides. However, many other proteins may be present in the proteome that could bind to POLE2 and their putative NPF motifs are embedded in their natural structures that can greatly affect their binding properties. To investigate interactions between POLE2 and intact, full length proteins proteome-wide, we used nHU-MS experiments with recombinant His6-avi-MBP-tagged POLE2 as bait and purified His6-avi-MBP as a control. Even though we are aware that this recombinant POLE2 may bind to NPF motifs with a somewhat altered affinity, we assumed that this would affect all NPF motif-mediated interactions equally, allowing an unbiased affinity ranking of all identified partners. Single point nHU measurements were performed at 26 μM POLE2 concentration and the recovered supernatant was measured by label free proteomic MS measurements (Fig. 3A, Supplementary Figs. 8A, 9, Supplementary Data 1).
Single-point nHU experiments with protein baits were carried out nearly identically with two key modifications. First, the resin saturation step was carried out by mixing 50 μl streptavidin resin with 0.5−1 ml 50 μM biotinylated protein solution and the mixture was incubated for 1.5 h at 4 °C with constant agitation. Second, instead of using estimated bait concentrations, we measured it experimentally. An extra aliquot of resin stock was prepared alongside the nHU samples that were identically processed that were used to eluate the immobilized proteins under harsh conditions, in order to experimentally quantify the Cbait by using densitometry of Coomassie stained SDS-PAGE that included a protein calibration series. For this, 50 μl bait-saturated resin aliquots were mixed with 200 μl 4x Laemmli Sample Buffer (120 mM Tris-HCl pH 7, 8% SDS, 100 mM DTT, 32% glycerol, 0.004% bromphenol blue, 1% β-mercaptoethanol), instead of cell extract. After 15 min incubation at 95 °C, these samples were analyzed by SDS-PAGE using protein calibration standard, made from recombinant MBP. Densitometry was carried out after Coomassie staining on raw Tif images by using Fiji ImageJ 1.53c and experimental bait concentration were determined by adjusting for molecular weight differences between MBP and MBP-POLE2 constructs.
Samples were digested overnight at 37 °C.

How did the pKapp_sign turn out when “HARISSTSHT [TRIP11, endogenous full length prey protein]” was run?
Its pKapp_sign is 4.056.

For “TSSTPE [AGFG1, endogenous full length prey protein]”, which pKapp_sign is on record?
The pKapp_sign was 4.872.

Which pKapp_sign does the source give for NSVD [GYS1] here?
The pKapp_sign was 4.403.

Which pKapp_sign does the source give for KSVD [MYCBP2] here?
Its pKapp_sign is 4.444.
